# Experimental data published in patent publication US10508109B2 (priority 2015, dated 2019).
# Structures can show the parent of a compound that is named as a salt. Where two headings read alike, the source gives them in different places.
# Tests used:
# [1] = system: A549; test: Cell-based assay, anti-proliferative activity (Cell Counting Kit-8, 72 hours); details: A549 cells, read-out: IC50 (μM) A549
# Method in brief: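 Seed cells in 96-well format; add inhibitors; measure growth by CCK-8 at end of exposure; derive IC50.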
# [2] = system: CCD-18Co; test: as above; details: CCD-18Co cells, read-out: IC50 (μM) CCD-18Co
# Method in brief: (§1)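 Seed cells in 96-well plates; add serially diluted inhibitor (1.5625 to 100 micro-M plus vehicle); incubate 72 hours; quantify viable growth by CCK-8 and calculate IC50.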
# [3] = system: HCT-116; test: as above; details: HCT-116 cells, read-out: IC50 (μM) HCT-116
# Method in brief: as §1
# [4] = system: HFL1; test: as above; details: HFL1 cells, read-out: IC50 (μM) HFL1
# Method in brief: as §1
# [5] = system: PC14; test: as above; details: PC14 cells, read-out: IC50 (μM) PC14
# Method in brief: as §1
# [6] = target: SUV39H2 (Homo sapiens (Human), UniProt Q9H5I1); details: read-out: IC50 (μM) Suv 39H2 assay; enzyme assay
# [7] = Homo sapiens, 72 hours, Cell Counting Kit-8
# [8] = Homo sapiens, PC-14, 72 hours, Cell Counting Kit-8
# [9] = Homo sapiens, Cell Counting Kit-8, 72 hours
# [10] = Homo sapiens, PC-14, Cell Counting Kit-8, 72 hours
# Chain of SUV39H2 (Q9H5I1 whole entry): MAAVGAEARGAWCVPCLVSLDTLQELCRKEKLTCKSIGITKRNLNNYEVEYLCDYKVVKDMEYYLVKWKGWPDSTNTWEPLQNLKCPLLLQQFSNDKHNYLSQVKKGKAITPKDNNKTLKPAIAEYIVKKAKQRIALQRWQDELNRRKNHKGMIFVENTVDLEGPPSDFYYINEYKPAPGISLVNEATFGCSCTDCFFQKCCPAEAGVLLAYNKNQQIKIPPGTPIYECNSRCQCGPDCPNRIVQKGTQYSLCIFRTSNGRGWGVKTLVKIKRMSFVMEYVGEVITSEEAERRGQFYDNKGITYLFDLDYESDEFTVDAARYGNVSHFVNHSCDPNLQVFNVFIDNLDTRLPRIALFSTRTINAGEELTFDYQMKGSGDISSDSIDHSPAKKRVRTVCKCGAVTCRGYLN
Molecule,"IC50 [1, 7] [µM]","IC50 [2, 7] [µM]","IC50 [3, 7] [µM]","IC50 [4, 7] [µM]","IC50 [5, 8] [µM]",IC50 [6] [µM],"IC50 [1, 9] [µM]","IC50 [2, 9] [µM]","IC50 [3, 9] [µM]","IC50 [4, 9] [µM]","IC50 [5, 10] [µM]","IC50 ([1]; 72 hours, Cell Counting Kit-8) [µM]","IC50 ([2]; 72 hours, Cell Counting Kit-8) [µM]","IC50 ([3]; 72 hours, Cell Counting Kit-8) [µM]","IC50 ([4]; 72 hours, Cell Counting Kit-8) [µM]","IC50 ([5]; 72 hours, Cell Counting Kit-8) [µM]"
"COc1cc(OC)c(-c2cn3ccc(N4CCN(c5ccnc(N6CCOCC6)n5)CC4)cc3n2)cc1Cl [Example 294, 4-(4-(4-(2-(5-chloro-2,4-dimethoxyphenyl)imidazo[1,2-a]pyridin-7-yl)-piperazin-1-yl)pyrimidin-2-yl)morpholine]",1.1,1.3,0.78,2.3,1,0.0283,–,–,–,–,–,–,–,–,–,–
"COc1cc(OC)c(-c2cn3ccc(N4CCN(CCN(C)C)CC4)cc3n2)cc1Cl [Example 88, 2-(4-(2-(5-chloro-2,4-dimethoxyphenyl)imidazo[1,2-a]pyridin-7-yl)piperazin-1-yl)-N,N-dimethylethanamine]",–,–,–,–,–,0.00884,3.3,5.6,3.9,3,2.9,–,–,–,–,–
"COc1cc(OC)c(-c2cn3ccc(N4CCC(N5CCCS5(=O)=O)CC4)cc3n2)cc1Cl [Example 182, 2-{1-[2-(5-chloro-2,4-dimethoxyphenyl)imidazo[1,2-a]pyridin-7-yl]piperidin-4-yl}isothiazolidine 1,1-dioxide]",–,–,–,–,–,0.00697,1.7,2.6,1.9,1.8,1.5,–,–,–,–,–
"COc1cc(OC)c(-c2nc3cc(N4CCN(C(=O)OC(C)(C)C)CC4)ccn3c2Br)cc1Cl [Example 271, tert-butyl 4-(3-bromo-2-(5-chloro-2,4-dimethoxy-phenyl)imidazo[1,2-a]pyridin-7-yl)piperazine-1-carboxylate]",1.3,1.4,1.5,1.2,0.57,0.0267,–,–,–,–,–,–,–,–,–,–
"COc1cc(OC)c(-c2cn3ccc(N4CCC(NC(=O)OC(C)(C)C)C4)cc3n2)cc1Cl (stereo not drawn) [Example 23, tert-butyl{1-[2-(5-chloro-2,4-dimethoxyphenyl)imidazo[1,2-a]pyridin-7-yl]pyrrolidin-3-yl}carbamate]",–,–,–,–,–,0.00635,2.4,2.8,1.8,1.2,1.7,–,–,–,–,–
"CCS(=O)(=O)N1CCN(c2ccn3cc(-c4cc(Cl)c(OC)cc4OC)nc3n2)CC1 [Example 190, 2-(5-chloro-2,4-dimethoxyphenyl)-7-[4-(ethylsulfonyl)piperazin-1-yl]imidazo[1,2-a]pyrimidine]",–,–,–,–,–,0.0306,1.8,4.5,2.3,2.7,1,–,–,–,–,–
"COc1cc(OC)c(-c2cn3ccc(N4CCN(CCN5CCCCC5)CC4)cc3n2)cc1Cl [Example 135, 2-(5-chloro-2,4-dimethoxyphenyl)-7-(4-(2-(piperidin-1-yl)ethyl)piperazin-1-yl)imidazo[1,2-a]pyridine]",–,–,–,–,–,0.0128,3,2.8,2.4,4.8,2.6,–,–,–,–,–
"COc1cc(OC)c(-c2nc3cc(N4CCN(C(=O)OC(C)(C)C)CC4)ccn3c2I)cc1Cl [Example 290, tert-butyl 4-(2-(5-chloro-2,4-dimethoxyphenyl)-3-iodoimidazo[1,2-a]-pyridin-7-yl)piperazine-1-carboxylate]",1.3,1.4,1.3,1.3,0.61,0.00975,–,–,–,–,–,–,–,–,–,–
"COc1cc(OCCCN(C)C)c(-c2cn3ccc(N4CCN(C(=O)OC(C)(C)C)CC4)cc3n2)cc1Cl [Example 127, tert-butyl 4-(2-{5-chloro-2-[3-(dimethylamino)propoxy]-4-methoxyphenyl}imidazo[1,2-a]pyridin-7-yl)piperazine-1-carboxylate]",–,–,–,–,–,0.0995,1.6,0.83,1.2,0.5,1.6,–,–,–,–,–
"COc1cc(C)c(Cl)cc1-c1cn2ccc(N3CCN(S(=O)(=O)C4CC4)CC3)cc2n1 [Example 229, 2-(5-chloro-2-methoxy-4-methylphenyl)-7-(4-(cyclopropylsulfonyl)-piperazin-1-yl)imidazo[1,2-a]pyridine]",1.9,3.8,2.1,2.3,0.8,0.0775,–,–,–,–,–,–,–,–,–,–
"COC(=O)Nc1ccn2cc(-c3cc(Cl)c(OC)cc3OC)nc2c1 [Example 183, methyl [2-(5-chloro-2,4-dimethoxyphenyl)imidazo[1,2-a]pyridin-7-yl]-carbamate]",–,–,–,–,–,0.0241,1.8,1.8,2.1,2,1.9,–,–,–,–,–
"COc1cc(OC)c(-c2cn3ccc(N4CCCC4)cc3n2)cc1Cl [Example 4, 2-(5-chloro-2,4-dimethoxyphenyl)-7-(pyrrolidin-1-yl)imidazo[1,2-a]pyridine hydrobromide]",–,–,–,–,–,0.0031,2,1.1,1.5,1.4,1.4,–,–,–,–,–
"COc1cc(OC)c(-c2cn3ccc(N4CCC(CCN(C)C)CC4)cc3n2)cc1Cl [Example 94, 2-(1-(2-(5-chloro-2,4-dimethoxyphenyl)imidazo[1,2-a]pyridin-7-yl)piperidin-4-yl)-N,N-dimethylethanamine]",–,–,–,–,–,0.00887,2.5,3.6,2.7,4.5,2.3,–,–,–,–,–
"4-(2-(5-chloro-2,4-dimethoxyphenyl)imidazo[1,2-a]pyridin-7-yl)-N-(pyrrolidin-2-ylmethyl)benzamide [Example 249]",–,–,–,–,–,0.035,–,–,–,–,–,5.4,5.2,3.7,5.4,4.8
"COc1cc(C)c(-c2cn3ccc(N4CCN(S(=O)(=O)C5CC5)C(CO)C4)cc3n2)cc1Cl (stereo not drawn) [Example 262, (4-(2-(5-chloro-4-methoxy-2-methylphenyl)imidazo[1,2-a]pyridin-7-yl)-1-(cyclopropylsulfonyl)piperazin-2-yl)methanol]",2.4,5.5,3.2,3.2,1.1,0.0453,–,–,–,–,–,–,–,–,–,–
"CCS(=O)(=O)NC1CCN(c2ccn3cc(-c4cc(Cl)c(OC)cc4OC)nc3c2)CC1 [Example 173, N-{1-[2-(5-chloro-2,4-dimethoxyphenyl)imidazo[1,2-a]pyridin-7-yl]piperidin-4-yl}ethanesulfonamide]",–,–,–,–,–,0.00961,1.5,0.99,1.9,0.53,1.6,–,–,–,–,–
"COc1cc(OC)c(-c2cn3ccc(N4CCN(S(=O)(=O)C5CC5)C(CO)C4)cc3n2)cc1Cl (stereo not drawn) [Example 236, (4-(2-(5-chloro-2,4-dimethoxyphenyl)imidazo[1,2-a]pyridin-7-yl)-1-(cyclopropylsulfonyl)piperazin-2-yl)methanol]",4.8,4,4.4,4.1,3.3,0.00655,–,–,–,–,–,–,–,–,–,–
"COc1cc(OC)c(-c2cn3ccc(N4CCC(CN(C)C)CC4)cc3n2)cc1Cl [Example 97, 1-(1-(2-(5-Chloro-2,4-dimethoxyphenyl)imidazo[1,2-a]pyridin-7-yl)piperidin-4-yl)-N,N-dimethylmethanamine]",–,–,–,–,–,0.00768,3.2,6.5,2.8,2.4,2.3,–,–,–,–,–
